“Also recorded” adds a separate entry of the source.
Legend:
[1] = tested on: herpes simplex virus (HSV-1); assay: Antiviral activity with respect to HSV-1 in VERO cells; type: cell-based, type 1, strain L2; conditions: 100 TCD50, 48 hours after the infection
From the text: (§1) Herpes simplex virus, type 1, strain L2, replicated in VERO cells was used in the investigation.
(§2) […] acyclovir was used as positive control

[2] = tested on: lymphoblastoid human cells MT-4; assay: Cytotoxicity on non-infected human lymphoblastoid cells; type: cell-based; conditions: for Cytotoxic action of the preparation on cells: 1, 10 μg/ml and higher (to 100 μg/ml)
[3] = tested on: porcine embryo kidney cells (SPEV); assay: Cytotoxic properties on SPEV cell culture; type: cell-based; conditions: for Percentage of died cells on exposure with different concentrations of the preparation during 48 hours: SPEV
Description: Cultures of reinoculated porcine embryo kidney cells (SPEV), highly sensitive to the pathogenic action of HSV, obtained from “Narva” Company (Russia) were employed. These cultures were used in the form of a one day monolayer of cells, grown in 24-cell plastic plates. The cultures of SPEV cells were grown on medium 199 with 10% of fetal calf serum with addition of glutamine and antibiotics (100 U/ml).
(§3) For studying the antiviral activity of the preparation, the preparation was introduced in various concentrations into the SPEV cell cultures at the moment of infection and in 24 hours after the infection with hepatitis C virus on the cell in 24-cell plastic culture plates.

HIV-1 = assay: Treatment of HIV-1-infected patients, blood sample analyses
Description: The treatment was carried out in accordance with the following schedule: 20 mg rectal suppositories every three days, one suppository a day during 3 months.

Hep 2 cells = assay: Proliferation of human epithelial carcinoma Hep 2 cells; type: cell-based
Description: In our experiments we used a 1 day culture of passage 14 Hep 2 cells—reinoculated cells of human epithelial carcinoma.
The growth medium contained DMEM+glutamine+antibiotics+5% FBS (fetal bovine serum). The supporting medium was DMEM/needle with a double kit of amino acids and vitamins+glutamine+antibiotics+10% of cattle serum.
The effect of such influence was most pronounced on the seventh day at the concentration of 100 μg/ml: there appeared discontinuities in the monolayer and there were many cell conglomerates in the culture medium.
The monolayer was removed from the glass plate in the 500 μl volume of the medium. The cells were precipitated from 200 μl, resuspended in a lysing buffer; electrophoresis of proteins was carried out in 12.5% PAAG with Kumashi staining.
A reduction in the intensity of protein profiles was observed on the second day and most dramatically on the seventh day at the studied concentrations of the preparation as compared with control. This can be indicative of a reduction in the number of cells because of inhibition of the mitotic activity of cells in the presence of the preparation. On the 7th day of the action of the preparation a reduction in the number of DNA compared with control was observed. Checking for the presence of DNA fragmentation has shown its absence, i.e., apoptosis manifestations were not detected.

[4] = tested on: herpes simplex virus (HSV-1); assay: Antiviral activity with respect to HSV-1 in human embryo fibroblasts (M-21); type: cell-based, type 1, strain L2; conditions: 100 TCD50, 48 hours after the infection
From the text: as §1, §2

hepatitis C virus = assay: Residual infectious activity (titers) of hepatitis C virus in SPEV culture medium; type: cell-based, hepatitis C virus genotype 1b; conditions: for Lowering of virus titers in SPEV cell cultures: administered simultaneously with the virus
Description: In our work we used cytopathogenic strain of hepatitis C virus belonging to geno-type 1b. The strain was isolated from the blood serum of a patient suffering from chronic viral hepatitis C, identified as hepatic C virus. Infective doses of HSV equal to 10 TCD of 50/20 μl were used in the investigation.
For titrating the residual infectiousness of the virus, the same line of porcine embryo kidney cells (SPEV) was used.
as §3
For determining the residual infectious activity of HSV, samples of the culture fluid were taken from the plate cells three days after the treatment of the infected cells with the preparation and titrated on the SPEV cell cultures. The infectious activity of HSV was taken into account from the results of titration on the 6-7th day after the infection, when maximum cytopathogenic action of the virus developed, applying the Rid and Mench formula for calculating the titer of the Hepatitis C virus.

[5] = tested on: African green monkey kidney cells (VERO); assay: Cytotoxic action on non-infected VERO cells; type: cell-based; conditions: 500 and 1000 μg/ml; 3-days follow-up
[6] = 1.0, 10 and 50 μg/ml, introduced 30 and 60 minutes after the infection

sodium salt of fullerene-polyamino-caproic acid
Protection of VERO cells against the cytodestructive action of HSV-1 ([1]; 10 μg/ml): full protection | Protection of VERO cells from the cytodestructive action of HSV-1 [1, 6]: full protection | Viability of cells, % ([2]; 100 μg/ml, non-infected human lymphoblastoid cells (cell control 93)): 85% | Number of cells in 1 ml × 1000 ([2]; 100 μg/ml, non-infected human lymphoblastoid cells (cell control 966)): 866 in 1 ml × 1000 | Cytotoxic action of the preparation on cells [2]: no cytotoxic action | Cytotoxic action of the preparation on cells ([2]; listed as sodium salt of fullerene-polyamino-propanoic acid): not detected | Percentage of died cells on exposure with different concentrations of the preparation during 48 hours ([3]; 6.25 (in μg)): 0% | Percentage of died cells on exposure with different concentrations of the preparation during 48 hours ([3]; 12.5 (in μg)): 0% | Percentage of died cells on exposure with different concentrations of the preparation during 48 hours ([3]; 25 (in μg)): 0% | Percentage of died cells on exposure with different concentrations of the preparation during 48 hours ([3]; 50 (in μg)): 0% | Percentage of died cells on exposure with different concentrations of the preparation during 48 hours ([3]; 100 (in μg)): 0% | Cytotoxic properties for SPEV cell cultures ([3]; concentration of up to 100 μg/ml): does not have cytotoxic properties | Condition of the patients (HIV-1; HIV-1-infected patients, 20 mg rectal suppositories, 3 months): improvement | Virus titer (value reciprocal to the dilution of sample that gives 50% CPE or syncytia) (HIV-1; Patient A, after 1 month, 20 mg rectal suppository every day, before treatment 8): 2 | T4-lymphocytes, mm^3 (HIV-1; Patient A, after 1 month, 20 mg rectal suppository every day, before treatment 59): 355 mm^3 | T8-lymphocytes, mm^3 (HIV-1; Patient A, after 1 month, 20 mg rectal suppository every day, before treatment 63): 455 mm^3 | PCR, RNA, copies/ml (HIV-1; Patient A, after 1 month, 20 mg rectal suppository every day, before treatment 1,200,000): 72,000 copies/ml | Virus titer (value reciprocal to the dilution of sample that gives 50% CPE or syncytia) (HIV-1; Patient A, after 2 months, 20 mg rectal suppository every day, before treatment 8): 2 | T4-lymphocytes, mm^3 (HIV-1; Patient A, after 2 months, 20 mg rectal suppository every day, before treatment 59): 234 mm^3 | T8-lymphocytes, mm^3 (HIV-1; Patient A, after 2 months, 20 mg rectal suppository every day, before treatment 63): 219 mm^3 | PCR, RNA, copies/ml (HIV-1; Patient A, after 2 months, 20 mg rectal suppository every day, before treatment 1,200,000): 43,000 copies/ml | Virus titer (value reciprocal to the dilution of sample that gives 50% CPE or syncytia) (HIV-1; Patient A, after 3 months, 20 mg rectal suppository every day, before treatment 8): 0 | T4-lymphocytes, mm^3 (HIV-1; Patient A, after 3 months, 20 mg rectal suppository every day, before treatment 59): 381 mm^3 | T8-lymphocytes, mm^3 (HIV-1; Patient A, after 3 months, 20 mg rectal suppository every day, before treatment 63): 409 mm^3 | PCR, RNA, copies/ml (HIV-1; Patient A, after 3 months, 20 mg rectal suppository every day, before treatment 1,200,000): 44,000 copies/ml | Virus titer (value reciprocal to the dilution of sample that gives 50% CPE or syncytia) (HIV-1; Patient B, after 1 month, 20 mg rectal suppositories every three days, before treatment 4): 128 | T4-lymphocytes, mm^3 (HIV-1; Patient B, after 1 month, 20 mg rectal suppositories every three days, before treatment 163): 581 mm^3 | T8-lymphocytes, mm^3 (HIV-1; Patient B, after 1 month, 20 mg rectal suppositories every three days, before treatment 257): 464 mm^3 | PCR, RNA, copies/ml (HIV-1; Patient B, after 1 month, 20 mg rectal suppositories every three days, before treatment 140,000): 180,000 copies/ml | Virus titer (value reciprocal to the dilution of sample that gives 50% CPE or syncytia) (HIV-1; Patient B, after 2 months, 20 mg rectal suppositories every three days, before treatment 4): 2 | T4-lymphocytes, mm^3 (HIV-1; Patient B, after 2 months, 20 mg rectal suppositories every three days, before treatment 163): 329 mm^3 | T8-lymphocytes, mm^3 (HIV-1; Patient B, after 2 months, 20 mg rectal suppositories every three days, before treatment 257): 329 mm^3 | PCR, RNA, copies/ml (HIV-1; Patient B, after 2 months, 20 mg rectal suppositories every three days, before treatment 140,000): 3,500 copies/ml | Virus titer (value reciprocal to the dilution of sample that gives 50% CPE or syncytia) (HIV-1; Patient B, after 3 months, 20 mg rectal suppositories every three days, before treatment 4): 1 | T4-lymphocytes, mm^3 (HIV-1; Patient B, after 3 months, 20 mg rectal suppositories every three days, before treatment 163): 325 mm^3 | T8-lymphocytes, mm^3 (HIV-1; Patient B, after 3 months, 20 mg rectal suppositories every three days, before treatment 257): 401 mm^3 | PCR, RNA, copies/ml (HIV-1; Patient B, after 3 months, 20 mg rectal suppositories every three days, before treatment 140,000): 2,000 copies/ml | Number of DNA compared with control (Hep 2 cells; 7th day): reduction | Proliferation of Hep 2 cells (monolayer formation) (Hep 2 cells; 10, 50 and 100 μg/ml, most pronounced at 100 μg/ml): pronounced inhibition; also recorded: inhibits the formation of a monolayer | Intensity of protein profiles compared with control (Hep 2 cells; second day and most dramatically seventh day, 10, 50 and 100 μg/ml): reduction | Protection of M-21 cells against the cytodestructive action of HSV-1 ([4]; 10 μg/ml): full protection | Protection of M-21 cells from the cytodestructive action of HSV-1 [4, 6]: full protection | Titers of hepatitis C virus in medium samples taken on the 3rd day after infecting (hepatitis C virus; 6.25 μg/ml, introduced 24 hours after infecting (control 9.1)): 9.0 1 g TCD 50/20 μl | Titers of hepatitis C virus in medium samples taken on the 3rd day after infecting (hepatitis C virus; 6.25 μg/ml, introduced at the moment of infecting (control 9.5)): 9.7 1 g TCD 50/20 μl | Titers of hepatitis C virus in medium samples taken on the 3rd day after infecting (hepatitis C virus; 12.5 μg/ml, introduced 24 hours after infecting (control 9.1)): 9.9 1 g TCD 50/20 μl | Titers of hepatitis C virus in medium samples taken on the 3rd day after infecting (hepatitis C virus; 12.5 μg/ml, introduced at the moment of infecting (control 9.5)): 9.5 1 g TCD 50/20 μl | Titers of hepatitis C virus in medium samples taken on the 3rd day after infecting (hepatitis C virus; 25 μg/ml, introduced 24 hours after infecting (control 9.1)): 9.5 1 g TCD 50/20 μl | Titers of hepatitis C virus in medium samples taken on the 3rd day after infecting (hepatitis C virus; 25 μg/ml, introduced at the moment of infecting (control 9.5)): 9.3 1 g TCD 50/20 μl | Lowering of virus titers in SPEV cell cultures (hepatitis C virus; 50 μg/ml, listed as preparation): 3.0 lg | Titers of hepatitis C virus in medium samples taken on the 3rd day after infecting (hepatitis C virus; 50 μg/ml, introduced 24 hours after infecting (control 9.1)): 8.5 1 g TCD 50/20 μl | Titers of hepatitis C virus in medium samples taken on the 3rd day after infecting (hepatitis C virus; 50 μg/ml, introduced at the moment of infecting (control 9.5)): 6.2 1 g TCD 50/20 μl | Lowering of virus titers in SPEV cell cultures (hepatitis C virus; 100 μg/ml): 7.4 lg | Titers of hepatitis C virus in medium samples taken on the 3rd day after infecting (hepatitis C virus; 100 μg/ml, introduced 24 hours after infecting (control 9.1)): 3.0 1 g TCD 50/20 μl | Titers of hepatitis C virus in medium samples taken on the 3rd day after infecting (hepatitis C virus; 100 μg/ml, introduced at the moment of infecting (control 9.5)): 2.1 1 g TCD 50/20 μl | Cytodestructive action on non-infected VERO cells [5]: has not revealed cytodestructive action

Source: patent US20060122276A1, “Agent for inhibiting membrane virus reproduction, method for the production thereof, pharmaceutical composition and method for inhibiting viral infections” (priority 2003, published 2006)
